In paper PMC7048302, “Deep Learning-driven research for drug discovery: Tackling Malaria” (PLoS Computational Biology, 2020):
“Also recorded” adds a separate entry of the source. Like-named read-outs stand apart in the source and are kept apart here.

Columns and labels:
[1] = system: P. falciparum 3D7 strain (chloroquine sensitive); settings: S3 File, continuous QSAR dataset; ref ChEMBL CHEMBL2366922 [25]; cited from earlier work
[2] = system: mouse embryonic fibroblasts (NIH/3T3 cell line); settings: S4 File, continuous QSAR dataset; ref ChEMBL CHEMBL614822 [25]; cited from earlier work
[3] = system: P. falciparum 3D7 strain; test: Antiplasmodial assay (SYBR Green), sensitive strain; format: cell-based, Plasmodium falciparum; settings: for EC50: Plasmodium falciparum; for antiplasmodial activity (concentration range in words): asexual blood stages, 3D7 and W2 strains; for SI^a: Selectivity index calculated by COS7 CC50/3D7 EC50
Experimental: (§1) The 3D7 and W2 strains were cultured in RPMI 1640 medium supplemented with 0.05 mg/mL gentamycin, 38.4 mM HEPES, 0.2% sodium bicarbonate, and 10% O^+ human serum, as previously described in standardized protocol. Then, erythrocytes were added to the culture to obtain a 5% of hematocrit, and incubated at 37°C under 5% CO2 atmosphere, with daily exchange of medium. The parasitemia was monitored daily in smears, stained with Giemsa. Synchronic cultures in ring stage were obtained by two consecutive treatments, at 48h intervals with a 5% solution of D-sorbitol.
(§2) Parasites synchronized at the ring stage, with 0.5% parasitemia and 2% hematocrit, were distributed in the wells of a 96-well plate. The compounds were tested in triplicates using 12-point dilution series (0.019 μM– 40 μM) over 72h. Chloroquine and pyrimethamine were used as positive controls. The in vitro susceptibility of parasite to tested drugs was measured by SYBR Green according to Hartwig and colleagues. Briefly, 100 μL of lysis buffer (20 mM Tris, 5 mM EDTA, 0,008% wt/vol saponin, 0,08% vol/vol Triton X-100 and 0.4 μL/mL of SYBR Green) were added in each well of a new black 96-well plate and 100 μL of parasite culture incubated with drugs were transferred. After homogenization, the plates were incubated for 1h in the dark. Fluorescence was measured at 490 nm excitation and 540 nm emission (CLARIOstar, Labtech BMG).
(§3) The EC50 and CC50 values were calculated by plotting the Log doses vs. inhibition (expressed as a percentage relative to the control) in GraphPad Prism v.6 (GraphPad Software, La Jolla California USA, www.graphpad.com).

[4] = system: P. falciparum W2 strain; test: Antiplasmodial assay (SYBR Green), multi-drug-resistant strain; format: cell-based, Plasmodium falciparum; settings: for EC50: Plasmodium falciparum, read-out: EC50 (PfW2); for SI^b: Selectivity index calculated by COS7 CC50/W2 EC50
Experimental: as §1, §2, §3

[5] = Cytotoxicity assay (MTT reduction); format: cell-based, monkey; settings: monkey, COS-7 cells (fibroblast-like monkey kidney cell line); 72 hours, mean ± SD of three independent assays
Experimental: (§4) Cytotoxicity assays used fibroblast-like cell lines derived from monkey kidney tissue (COS7 cells), grown in DMEM medium supplemented with 10% fetal bovine serum and 0.05 mg/mL gentamicin in atmosphere containing 5% CO2 at 37°C. […] After an incubation period (72 hours), cell viability analysis was performed via the MMT reduction method (3- [4,5- dimethyl-thiazol-2-yl] -2,5-diphenyltetrazolium […]).
as §3

[6] = system: COS-7 cells; test: Cytotoxicity assay (MTT reduction); format: cell-based, monkey; settings: in words
Experimental: as §4, §3

[7] = 3D7, asexual blood stage, 72h, mean ± SD of three independent assays, read-out: EC50 (Pf3D7)
[8] = W2, asexual blood stage, 72h, mean ± SD of three independent assays
[9] = 3D7, asexual blood stages of sensitive and multi-drug-resistant strains, read-out: EC50

EC50 [3, 7] [nM] | EC50 [4, 8] [nM] | SMILES | pEC50 [1] | CC50 at 72 h [5] [nM] | SI^b [4] | further results
– | – | Cc1ccc(-c2ccc(-c3ccc(C(=N)N)cc3)o2)cc1 | 10.24 | – | – | –
– | – | CC1CCC2C(C)C(O)OC3OC4(C)CCC1C32OO4 (centres unmarked) | 10.00 | – | – | –
– | – | COc1ccc(-c2ccc(-c3ccc(C(=N)N)cc3)o2)cc1 | 9.86 | – | – | –
– | – | Cn1cncc1C(O)C1=Cc2cccnc2C(N2CCN(C(=O)NC(C)(C)C)CC2)c2ccc(Cl)cc21 (centres unmarked) | – | – | – | pCC50 [2]: 9.30
– | – | Cn1cncc1C(OCc1ccc(C#N)cc1C#Cc1ccccc1)c1ccc(C#N)cc1 (centres unmarked) | – | – | – | pCC50 [2]: 10.00
– | – | N=C(N)c1ccc(-c2ccc(-c3ccc(F)cc3)o2)cc1 | 11.02 | – | – | –
– | – | CCN(CC)CCCC(C)Nc1ccnc2cc(Cl)ccc12 (centres unmarked) [Chloroquine, chloroquine, reference compound] | – | – | – | EC50 ([3]; 3D7, 72 h, read-out: EC50 (Pf3D7)): 11 ± 1 nM; EC50 ([4]; W2, 72 h): 173 ± 20 nM
> 40000 | > 40000 | CC1(C)NC(C2=NOC(C)(C)N2)=NO1 [LabMol-148] | – | > 200000 | – | –
1450 ± 524 | 509 ± 177 | Oc1ccccc1C1N=C(c2ccccc2)N=C(c2ccccc2)N1 (centres unmarked) [LabMol-149, 2-(4,6-diphenyl-1,2-dihydro-1,3,5-triazin-2-yl)phenol] | – | > 100000 | >196 | EC50 [3, 9]: < 500 nM; antiplasmodial activity (concentration range in words) [3]: submicromolar and low nanomolar range; also recorded: activity at submicromolar concentrations; cytotoxicity in mammalian cells [6]: low cytotoxicity
> 40000 | > 40000 | Nc1cc(N)nc(N2CCOCC2)n1 [LabMol-150] | – | > 200000 | – | –
1910 ± 292 | 1620 ± 321 | CC(=O)N(C1=C(N2CCOCC2)C(=O)c2ccccc2C1=O)c1ccc(C(=O)O)cc1 [LabMol-151, 4-{N-[3-(morpholin-4-yl)-1,4-dioxo-1,4-dihydronaphthalen-2-yl]acetamido}benzoic acid] | – | 141000 ± 11200 | 87.1 | SI^a [3]: 73.7; antiplasmodial activity (concentration range in words) [3]: submicromolar and low nanomolar range; also recorded: activity at submicromolar concentrations; cytotoxicity in mammalian cells [6]: low cytotoxicity
49 ± 29 | 78 ± 14 | Fc1cccc(Nc2nc(NCC3CCCO3)c3ccccc3n2)c1 (centres unmarked) [LabMol-152, N2-(3-fluorophenyl)-N4-[(oxolan-2-yl)methyl]quinazoline-2,4-diamine] | – | 16700 ± 10300 | 214.1 | EC50 [3, 9]: < 500 nM; SI^a [3]: 340.8; antiplasmodial activity (concentration range in words) [3]: submicromolar and low nanomolar range; cytotoxicity in mammalian cells [6]: low cytotoxicity
37 ± 7 | 18200 ± 4540 | CCc1nc(N)nc(N)c1-c1ccc(Cl)cc1 [Pyrimethamine, pyrimethamine, reference compound] | – | > 100000 | 5.5 | SI^a [3]: 2,702
